Experimental data taken from ChEMBL document CHEMBL1201862, “PubChem BioAssay data set” (2004).
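Each compound was tested at five concentrations against cells in 96-well plates for 48 hours. GI50: concentration for 50% inhibition of growth.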 Active and inactive are the calls of the source. Rule as the data show it: active = GI50 up to about 1.1 µM and inactive = higher.

How the values were obtained:
Experiment in all cases: DTP human tumour cell line panel, 48 h
COLO 205 = system: COLO 205
SNB-75 = system: SNB-75
A549 = system: A549
ACHN = system: ACHN
HCT-15 = system: HCT-15
SW-620 = system: SW-620
NCI/ADR-RES = system: NCI/ADR-RES
MDA-N = system: MDA-N
MDA-MB-435 = system: MDA-MB-435
SNB-19 = system: SNB-19
HCT-116 = system: HCT-116
OVCAR-8 = system: OVCAR-8
SF-539 = system: SF-539
SF-295 = system: SF-295
CAKI-1 = system: CAKI-1
M14 = system: M14
A498 = system: A498
OVCAR-3 = system: OVCAR-3
KM12 = system: KM12
UO-31 = system: UO-31

| SMILES | GI50 (COLO 205) | GI50 (SNB-75) | GI50 (A549) | GI50 (ACHN) | GI50 (HCT-15) [µM] | GI50 (SW-620) | GI50 (NCI/ADR-RES) | GI50 (MDA-N) | GI50 (MDA-MB-435) | GI50 (SNB-19) | GI50 (HCT-116) | GI50 (OVCAR-8) | GI50 (SF-539) | GI50 (SF-295) | GI50 (CAKI-1) | GI50 (M14) | GI50 (A498) | GI50 (OVCAR-3) | GI50 (KM12) | GI50 (UO-31) |
| --- | --- | --- | --- | --- | --- | --- | --- | --- | --- | --- | --- | --- | --- | --- | --- | --- | --- | --- | --- | --- |
| NCCCCNC1(c2cc3ccccc3s2)CCCCC1 | 1.74 µM (inactive) | 3.27 µM (inactive) | 5.96 µM (inactive) | 11.1 µM (inactive) | 4.54 | 3.54 µM (inactive) | 6.9 µM (inactive) | 1.71 µM (inactive) | 1.82 µM (inactive) | 7.45 µM (inactive) | 3.65 µM (inactive) | 7.06 µM (inactive) | 1.95 µM (inactive) | 2.84 µM (inactive) | 14.8 µM (inactive) | 1.98 µM (inactive) | 2.16 µM (inactive) | 2.78 µM (inactive) | 3.2 µM (inactive) | 2.56 µM (inactive) |
| Nc1ccc(Sc2c3ccccc3nc3ccccc23)cc1 | 11.5 µM (inactive) | 17.1 µM (inactive) | 33.3 µM (inactive) | 12.3 µM (inactive) | 17.2 | 10.4 µM (inactive) | 7.73 µM (inactive) | 12.2 µM (inactive) | 17.2 µM (inactive) | 22.1 µM (inactive) | 10.8 µM (inactive) | 13.8 µM (inactive) | 15.6 µM (inactive) | 19.1 µM (inactive) | 18.5 µM (inactive) | 15.7 µM (inactive) | 68.5 µM (inactive) | 15.6 µM (inactive) | 18.6 µM (inactive) | 17.5 µM (inactive) |
| CC(C)(C)COS(=O)OCC(C)(C)C | > 100 µM (inactive) | > 100 µM (inactive) | > 100 µM (inactive) | > 100 µM (inactive) | > 100 | > 100 µM (inactive) | > 100 µM (inactive) | > 100 µM (inactive) | > 100 µM (inactive) | > 100 µM (inactive) | > 100 µM (inactive) | > 100 µM (inactive) | > 100 µM (inactive) | > 100 µM (inactive) | > 100 µM (inactive) | > 100 µM (inactive) | > 100 µM (inactive) | > 100 µM (inactive) | > 100 µM (inactive) | > 100 µM (inactive) |
| CN(C)c1ccc(/C=C(\NC(=O)c2ccccc2)C(=O)NC(CCC(=O)O)C(=O)O)cc1 (stereo not given) | > 100 µM (inactive) | > 100 µM (inactive) | > 100 µM (inactive) | > 100 µM (inactive) | > 100 | > 100 µM (inactive) | > 100 µM (inactive) | > 100 µM (inactive) | > 100 µM (inactive) | > 100 µM (inactive) | > 100 µM (inactive) | > 100 µM (inactive) | > 100 µM (inactive) | > 100 µM (inactive) | > 100 µM (inactive) | > 100 µM (inactive) | > 100 µM (inactive) | > 100 µM (inactive) | > 100 µM (inactive) | > 100 µM (inactive) |
| CCOP(=O)(OCC)/C(C#N)=C(\C)c1ccco1 | > 10 µM (inactive) | > 10 µM (inactive) | > 10 µM (inactive) | > 10 µM (inactive) | > 10 | > 10 µM (inactive) | > 10 µM (inactive) | > 10 µM (inactive) | > 10 µM (inactive) | > 10 µM (inactive) | > 10 µM (inactive) | > 10 µM (inactive) | > 10 µM (inactive) | > 10 µM (inactive) | > 10 µM (inactive) | > 10 µM (inactive) | > 10 µM (inactive) | > 10 µM (inactive) | > 10 µM (inactive) | > 10 µM (inactive) |
| O=C1O[C@]2(c3ccccc3)C(c3ccccc3)=C[C@]2(C(=O)c2ccccc2)C1=O | 48.2 µM (inactive) | 3.92 µM (inactive) | 37.2 µM (inactive) | 35.2 µM (inactive) | 29.5 | 19.1 µM (inactive) | 31.6 µM (inactive) | 31.9 µM (inactive) | 37.2 µM (inactive) | 36.6 µM (inactive) | 28.6 µM (inactive) | 29.8 µM (inactive) | 23 µM (inactive) | 47 µM (inactive) | 36.9 µM (inactive) | 32.3 µM (inactive) | 35.5 µM (inactive) | 32.6 µM (inactive) | 35.8 µM (inactive) | 27.9 µM (inactive) |
| CCN(CC)c1ccc(/C=C/C(=O)c2cc(C(C)(C)C)c(O)c(C(C)(C)C)c2)cc1 | 4.62 µM (inactive) | 4.9 µM (inactive) | 19.6 µM (inactive) | > 42.6 µM (inactive) | 21.1 | 4.84 µM (inactive) | 4.38 µM (inactive) | 3.14 µM (inactive) | 3.21 µM (inactive) | 38 µM (inactive) | 3.21 µM (inactive) | 15.9 µM (inactive) | 3.19 µM (inactive) | 2.6 µM (inactive) | 5.14 µM (inactive) | 21.2 µM (inactive) | 31.3 µM (inactive) | 10.2 µM (inactive) | 2.99 µM (inactive) | 17.6 µM (inactive) |
| O=C(NC(=O)c1c(F)cccc1F)Nc1cccc(Oc2ncc(Cl)cn2)c1 | 3.85 µM (inactive) | 19.5 µM (inactive) | > 39.9 µM (inactive) | 99.3 µM (inactive) | 3.27 | 4.3 µM (inactive) | > 23.3 µM (inactive) | 1.56 µM (inactive) | 1.63 µM (inactive) | 45.5 µM (inactive) | 8.79 µM (inactive) | 43 µM (inactive) | 23.3 µM (inactive) | 32.3 µM (inactive) | 30 µM (inactive) | > 51.2 µM (inactive) | > 76.6 µM (inactive) | 40.4 µM (inactive) | 1.4 µM (inactive) | > 100 µM (inactive) |
| S=C(Nc1cccc(C2(N3CCCCC3)CCCCC2)c1)Nc1cccc(C2(N3CCCCC3)CCCCC2)c1 | 17.1 µM (inactive) | 12.9 µM (inactive) | 31.6 µM (inactive) | 23.9 µM (inactive) | 32.2 | 37.8 µM (inactive) | > 100 µM (inactive) | 17.6 µM (inactive) | 16 µM (inactive) | 36.6 µM (inactive) | 20.8 µM (inactive) | 24.3 µM (inactive) | 15.3 µM (inactive) | 37.8 µM (inactive) | 42 µM (inactive) | 18.7 µM (inactive) | 18.9 µM (inactive) | 21.8 µM (inactive) | 16 µM (inactive) | 16.9 µM (inactive) |
| CCOC(=O)CCC(NC(=O)c1ccc(Oc2nc3ccc(C(F)(F)F)cc3nc2-c2ccccc2)cc1)C(=O)OCC (stereo not given) | > 100 µM (inactive) | 9.46 µM (inactive) | 24.2 µM (inactive) | 5.61 µM (inactive) | > 100 | > 100 µM (inactive) | 15.5 µM (inactive) | > 100 µM (inactive) | > 100 µM (inactive) | 12.7 µM (inactive) | 25.6 µM (inactive) | 9.06 µM (inactive) | 3.01 µM (inactive) | 12.2 µM (inactive) | 7.19 µM (inactive) | 67.6 µM (inactive) | 16.4 µM (inactive) | 30.8 µM (inactive) | 11.2 µM (inactive) | 20.6 µM (inactive) |
